From ChEMBL document CHEMBL3797195, “Bacterial lipid membranes as promising targets to fight antimicrobial resistance, molecular foundations and illustration through the renewal of aminoglycoside antibiotics and emergence of amphiphilic aminoglycosides” (2016)
Converted amounts (≈) assume the structure as drawn.

Legend:
Format in all cases: functional
Pseudomonas aeruginosa [1] = test: Antibacterial activity against clinical colistin-resistant Pseudomonas aeruginosa by microdilution method
Escherichia coli [2] = test: Antibacterial activity against Escherichia coli ATCC 25922 after 24 hrs by MTT assay; details: ATCC 25922, 24 h
Klebsiella pneumoniae = test: Antibacterial activity against Klebsiella pneumoniae after 12 to 18 hrs by MTT assay
Pseudomonas aeruginosa [3] = test: Antibacterial activity against Pseudomonas aeruginosa after 12 to 18 hrs by MTT assay
Staphylococcus aureus [4] = test: Antibacterial activity against methicillin-resistant Staphylococcus aureus after 24 hrs by MTT assay
Staphylococcus aureus [5] = test: Antibacterial activity against Staphylococcus aureus ATCC 25923 after 12 to 18 hrs by two fold dilution method
Escherichia coli [6] = test: Antibacterial activity against Escherichia coli ATCC 25922 after 12 to 18 hrs by two fold dilution method

Compound	MIC (Staphylococcus aureus [5]) [µg/mL]	MIC (Escherichia coli [6]) [µg/mL]	also measured
NC[C@H]1O[C@H](O[C@H]2[C@H](O)[C@@H](OCCCc3ccc4ccccc4c3)[C@H](N)C[C@@H]2N)[C@H](N)[C@@H](OCCCc2ccc3ccccc3c2)[C@@H]1O			MIC (Pseudomonas aeruginosa [1]): 2 µg/mL (≈ 3.04 µM)
NC[C@H]1O[C@H](O[C@H]2[C@H](O)[C@@H](OCCCCc3ccc4ccccc4c3)[C@H](N)C[C@@H]2N)[C@H](N)[C@@H](OCCCCc2ccc3ccccc3c2)[C@@H]1O			MIC (Pseudomonas aeruginosa [1]): 2 µg/mL (≈ 2.91 µM)
CCCCCCCO[C@@H]1[C@@H](OCCCCCCC)[C@H](N)C[C@H](N)[C@H]1O[C@H]1O[C@H](CN)[C@@H](OCCCCCCC)C[C@H]1N			MIC (Escherichia coli [2]): 4 µg/mL (≈ 6.66 µM); MIC (Klebsiella pneumoniae): 4 µg/mL (≈ 6.66 µM); MIC (Pseudomonas aeruginosa [3]): 4 µg/mL (≈ 6.66 µM); MIC (Staphylococcus aureus [4]): 1 µg/mL (≈ 1.66 µM)
NC[C@H]1O[C@H](O[C@H]2[C@H](O)[C@@H](OCCCCCCCCCc3ccc4ccccc4c3)[C@H](N)C[C@@H]2N)[C@H](N)[C@@H](OCCCCCCCCCc2ccc3ccccc3c2)[C@@H]1O			MIC (Pseudomonas aeruginosa [1]): 2 µg/mL (≈ 2.42 µM)
CCCCCCCCO[C@H]1[C@@H](O[C@@H]2[C@@H](O)[C@H](O[C@H]3O[C@H](CN)[C@@H](O)[C@H](O)[C@H]3N)[C@@H](N)C[C@H]2N)O[C@H](CO)[C@@H](O)[C@@H]1O	> 32	> 32	
CCCCCCCCO[C@@H]1[C@@H](O)[C@@H](O[C@@H]2[C@@H](O)[C@H](O[C@H]3O[C@H](CN)[C@@H](O)[C@H](O)[C@H]3N)[C@@H](N)C[C@H]2N)O[C@H](CO)[C@H]1O	> 32	> 32	
CCCCCCCCO[C@@H]1[C@@H](O)[C@H](O)[C@H](O[C@H]2[C@H](O)[C@@H](O[C@@H]3O[C@@H](CN)[C@H](O)[C@@H](O)[C@@H]3N)[C@H](N)C[C@@H]2N)O[C@H]1CO (single isomer, unassigned)	> 32	> 32	
CCCCCCCCO[C@@H]1[C@@H](N)[C@H](O)[C@H](O[C@H]2[C@H](O)[C@@H](O[C@@H]3O[C@@H](CN)[C@H](O)[C@@H](O)[C@@H]3N)[C@H](N)C[C@@H]2N)O[C@H]1CO (single isomer, unassigned)	> 32	> 32	
CCCCCCCCO[C@@H]1[C@@H](O[C@H]2O[C@H](CN)[C@@H](O)[C@H](O)[C@H]2N)[C@H](N)C[C@H](N)[C@H]1O[C@H]1O[C@H](CO)[C@@H](O)[C@H](N)[C@H]1O (stereo in doubt)	> 32	> 32	
CCCCCCOC[C@@H]1O[C@@H](O[C@@H]2[C@@H](O)[C@H](O[C@@H]3O[C@@H](CN)[C@H](O)[C@@H](O)[C@@H]3N)[C@@H](N)C[C@H]2N)[C@@H](O)[C@H](O)[C@H]1O (stereo in doubt)	> 32	> 32	
CCCCCCCCO[C@@H]1[C@@H](O[C@H]2O[C@H](CN)[C@@H](O)[C@H](O)[C@H]2N)[C@H](N)C[C@H](N)[C@H]1O[C@H]1O[C@H](CO)[C@@H](O)[C@H](O)[C@H]1O (stereo in doubt)	> 32	> 32	
CCCCCCCCOC[C@@H]1O[C@@H](O[C@@H]2[C@@H](O)[C@H](O[C@@H]3O[C@@H](CN)[C@H](O)[C@@H](O)[C@@H]3N)[C@@H](N)C[C@H]2N)[C@@H](O)[C@H](O)[C@H]1O (stereo in doubt)	> 32	> 32	
